From patent US7138546B2, “Compounds and compositions for delivering active agents” (Emisphere Technologies, Inc., priority 2000, dated 2006) come the findings set out here.

Structures are written as SMILES.

By melting point is commonly meant the temperature of the solid-liquid transition. Compound `O=C(COc1ccccc1O)Nc1cc(Cl)ccc1O` [Compound 1, N-(5-Chloro-2-hydroxyphenyl)-2-(2-hydroxyphenoxy)acetamide] showed a melting point of 203 to 205 °C.
Turning to `CCOCCC(=O)Nc1cc(Cl)ccc1O` [Compound 2, N-(5-Choro-2-hydroxyphenyl)-3-ethoxypropanamide], the melting point lay in the range of 154 to 156 °C.
